For test [1], the system named is experienced and trained panelist. Briefly: Sensorial description of energy drinks and additive solutions with propylene glycol or biologically-produced 1,3-propanediol (multi-sip-and-swallow taste method).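 As to all read-outs here: propylene glycol or 1,3-propanediol added at 0.01, 0.1 or 1.0%, tasted by multi-sip-and-swallow in duplicate, compared with matching controls lacking either additive.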 The conditions noted are these: for Sensorial Description: RT.
The conditions of test [2]: 0.05% in black tea; U.S. Pat. No. 8,685,436; cited from earlier work.

“Also recorded” adds a separate entry of the source. Counter-ions that a name gives are not always drawn.

In the case of `CC(O)CO` (stereo not drawn) [PG, propylene glycol, reference compound], the “Sensorial Description” value in test [1] (0.01% PG or PDO in 238 ppm sucralose (10% SE) in distilled water) was 6-7% SE, significantly less sweet; in test [1] (0.01% PG or PDO in 338 ppm caffeine in distilled water (caffeine drink)), “Looked similar to Control #72”; in test [1] (0.01% PG or PDO in 3,338 ppm caffeine in distilled water (caffeine shot)) it was “(small sip): similar to Control #65”; in test [1] (0.01% PG or PDO in 10,500 ppm malic acid and 2,000 ppm sucralose in distilled water), “Less sweetness and sourness intensities (different”; in test [1] (0.01% PG or PDO in Bang energy drink) it was “Significantly less sweet and its lingering but still”; in test [1] (0.01% PG or PDO in Berry flavor in distilled water) it was “Less dry than Control #114, slight less flavor”. The “Sensorial Description” value in test [1] (0.01% PG or PDO in Monster Energy Zero Ultra) is “Significant less off-taste, less sourness, significantly”; in test [1] (0.01% PG or PDO in Monster Energy drink) it was “Note: Loss of carbonation. Significantly less”; in test [1] (0.01% PG or PDO in NOS High Performance Energy Drink), “Significantly less sourness and flavor, less sweet”; in test [1] (0.01% PG or PDO in Orange 5-hour ENERGY shot (5HE Orange)), “Significantly less flavor and bitterness, still strong”; in test [1] (0.01% PG or PDO in Red Bull Energy Drink) it was “Much better taste quality overall significantly less”; in test [1] (0.01% PG or PDO in Red Bull Sugar Free), “Significantly less off-tastes, still different off-taste”. The “Sensorial Description” value in test [1] (0.01% PG or PDO in Rockstar Original energy drink) was “Clearer off-flavor than sweet/sour, less sourness but”; in test [1] (0.1% PG or PDO in 238 ppm sucralose (10% SE) in distilled water), ~5-6% SE, slightly less sweetness; in test [1] (0.1% PG or PDO in 2,000 ppm sucralose in distilled water) it was “(small sip): Less overall sweet quality including 2nd”; in test [1] (0.1% PG or PDO in 3,338 ppm caffeine in distilled water (caffeine shot)), “(small sip): similar to Control #65”; in test [1] (0.1% PG or PDO in Berry 5-hour ENERGY shot (5HE Berry)) it was “Significantly less sweet and aftertaste and sweet”; in test [1] (0.1% PG or PDO in Berry flavor in distilled water) it was “Less dry than 0.01% PG, slight less flavor”. Moreover, the “Sensorial Description” value was “More smooth tasting quality, less sourness, no bitter,” in test [1] (0.1% PG or PDO in Monster Energy Zero Ultra); “Note: Loss of carbonation. Similar carbonic acid off-” in test [1] (0.1% PG or PDO in Monster Energy drink); “No bitterness, smoother, still flavor and sweet, less” in test [1] (0.1% PG or PDO in NOS High Performance Energy Drink); “Less flavor, no bitterness, still strong sourness but less” in test [1] (0.1% PG or PDO in Orange 5-hour ENERGY shot (5HE Orange)); “Note: Loss of carbonation. Medium flavor level, less” in test [1] (0.1% PG or PDO in Red Bull Energy Drink); “Flatter, smoothness, still different off-taste as 0.01%” in test [1] (0.1% PG or PDO in Red Bull Sugar Free). Besides, the “Sensorial Description” value is “Weak PG taste note, similar sweet quality” in test [1] (1.0% PG or PDO in 79 ppm sucralose (5% SE) in distilled water); “Slight PG taste, sweet smoother” in test [1] (1.0% PG or PDO in 238 ppm sucralose (10% SE) in distilled water); “Worst quality, more bitterness, medium intensity,” in test [1] (1.0% PG or PDO in 338 ppm caffeine in distilled water (caffeine drink)); “(small sip): Similar to 0.1% PG. Repeated tests” in test [1] (1.0% PG or PDO in 2,000 ppm sucralose in distilled water); “(small sip): similar to Control #65, no PG taste” in test [1] (1.0% PG or PDO in 3,338 ppm caffeine in distilled water (caffeine shot)); “PF taste note, similar qualities as 0.1% PG” in test [1] (1.0% PG or PDO in 10,500 ppm malic acid and 2,000 ppm sucralose in distilled water). Moreover, the “Sensorial Description” value in test [1] (1.0% PG or PDO in 10,500 ppm malic acid, 2,000 ppm sucralose, 3,338 ppm caffeine in distilled water) is “Stronger, thinner sourness quality”; in test [1] (1.0% PG or PDO in B vitamins at 5-hour Energy shot concentrations in distilled water), “PG flavor taste, similar other qualities as Control”; in test [1] (1.0% PG or PDO in Berry 5-hour ENERGY shot (5HE Berry)), “Began to show more sourness across the taste, still”; in test [1] (1.0% PG or PDO in Berry flavor in distilled water), “Less dry than Control #114, slight less flavor”; in test [1] (1.0% PG or PDO in Monster Energy Zero Ultra) it was “Very smooth, flat tasting quality of basic tastes, no”; in test [1] (1.0% PG or PDO in Monster Energy drink) it was “Note: Little carbonation. Little or no sourness, very”. In addition, the “Sensorial Description” value in test [1] (1.0% PG or PDO in NOS High Performance Energy Drink) is “Smoother than 0.1% PG, low-medium flavor, low”; in test [1] (1.0% PG or PDO in Orange 5-hour ENERGY shot (5HE Orange)), “Less flavor, sourness and sweetness, still moderate”; in test [1] (1.0% PG or PDO in Red Bull Energy Drink), “Note: significantly less or no carbonation. Low”; in test [1] (1.0% PG or PDO in Red Bull Sugar Free), “Medium off-flavor (not described) in middle tasting”; in test [1] (1.0% PG or PDO in Rockstar Original energy drink), “Slight off-flavor (seems like PDO's off flavor), little”. In test [1] (0.01% in 2,000 ppm sucralose in distilled water), the “reduction of sweetness and lingering at 1st half of the taste time” value is “lingering, ~40% less at 1st half of the taste time,”. For the same molecule, the “reduction of overall sweet quality” value in test [1] (0.1% in 2,000 ppm sucralose in distilled water) was “half of tasting time, ~10-20% less than 0.01% PG,”. The “reduction in unpleasant taste or masking of off-taste” value in test [1] (2,000 ppm, 238 ppm, or 70 ppm sucralose in distilled water) is “No reduction in unpleasant taste, or masking of off-taste”. For the same molecule, in test [1] (3,382 ppm or 338 ppm caffeine in distilled water), the “reduction of unpleasant taste / masking of bitterness” value is listed as “did not reduce the unpleasant taste, or mask the bitterness”. The “taste modulation of B vitamins” value in test [1] (aqueous B vitamins at concentrations comparable to 5-hour ENERGY shots) was “did not positively modulate”. In addition, in test [1] (berry flavor in distilled water), the “modulation of berry flavor” value is “Neither biologically-produced 1,3-propanediol, nor propylene glycol modulated the flavor”. Besides, the “taste modulation or sour masking” value in test [1] (malic acid at 10,500 ppm in distilled water) is “no positive taste modulation or sour masking effect”. Further, the “taste modulation of single additive solutions” value in test [1] (separate caffeine, malic acid, and sucralose solutions at mega-dose levels) was “did not positively modulate the taste or mask the bitter, off, or sour tastes; also recorded: neither propylene glycol, nor biologically-produced 1,3-propanediol modulated the taste”.

Take `OC[C@H]1O[C@H](O[C@]2(CCl)O[C@H](CCl)[C@@H](O)[C@@H]2O)[C@H](O)[C@@H](O)[C@H]1Cl` [sucralose]: the “Sensorial Description” value in test [1] (control: 79 ppm sucralose in distilled water, no PG or PDO) was “Comfortably 5% SE sweet, good sweet quality”; in test [1] (control: 238 ppm sucralose in distilled water, no PG or PDO), 10% SE, delayed onset of sweetness, very sweet; in test [1] (control: 2,000 ppm sucralose in distilled water, no PG or PDO), “(small sip): Extremely sweet, extremely strong sweet”.

In the case of `COc1cc([C@@H]2CC(=O)c3c(O)cc(O)cc3O2)ccc1O` [homoeriodictyol disodium salt], in test [2], the perceived bitterness entry is reported as “reduced the perceived bitterness”.

For the molecule `O=C(O)CC(O)C(=O)O` (stereo not drawn) [malic acid], in test [1] (control: 10,500 ppm malic acid in distilled water, no PG or PDO), the “Sensorial Description” value is listed as “Extreme sourness, clean sourness quality, slightly dry”.

Source of the values: patent US12349708B2, “Use and methods of 1,3-propanediol to improve taste and/or off-taste qualities” (Primient Covation LLC, priority 2019, dated 2025).
